Source: US20250276965A1, “PROCESS FOR THE PREPARATION OF ANTIBACTERIAL COMPOUNDS” (DISCUVA LIMITED, priority 2021, published 2025)

What was measured:
[1] = tested on: E. coli BAA-2469 (NDM-1 positive); experiment: Proof-of-concept murine bacteraemia or bloodstream infection model, IV bolus; type: in vivo; conditions: CD-1 mice, single dose IV bolus 20 mg/kg
Protocol: (§1) Compound (I) and comparative compound (III) were evaluated in proof-of-concept studies in murine models for the treatment of a respiratory infection with Gram-negative bacteria of the order Enterobacterales, a bacteraemia or bloodstream infection with Gram-negative bacteria of the order Enterobacterales, and a urinary tract infection with Gram-negative bacteria of the order Enterobacterales. Each dot, triangle or square indicator represents a single mouse. LOD refers to the limit of detection of the bacteria. […] Each of the proof-of-concept studies was carried out separately. By vehicle is meant pharmaceutically acceptable carrier or excipient.
For the proof-of-concept study for the treatment of a bacteraemia or bloodstream infection with Gram-negative bacteria of the order Enterobacterales, CD-1 mice were infected with human urine isolate E. coli BAA-2469 (NDM-1 positive). One hour after infection (‘pre-treatment’ in FIG. 3), a vehicle (20% hydroxypropyl β cyclodextrin) containing no compound (I) or comparative compound (III), or a vehicle (20% hydroxypropyl β cyclodextrin) containing compound (I) or comparative compound (III), was administered by as a single dose IV bolus at 20 mg/kg.

[2] = tested on: Klebsiella pneumoniae ATCC 43816; experiment: Proof-of-concept murine respiratory infection model, IV bolus; type: in vivo; conditions: CD-1 mice, 20 mg/kg IV bolus TID, 26 h
Protocol: as §1, with “excipient. For the proof-of-concept study for the treatment of a respiratory infection caused or exacerbated by Gram-negative bacteria of the order Enterobacterales, CD-1 mice were infected with Klebsiella pneumoniae ATCC 43816. Two hours after infection (‘pre-treatment’ in FIG. 2), a vehicle (20% hydroxypropyl β cyclodextrin) containing no compound (I) or comparative compound (III), or a vehicle (20% hydroxypropyl β cyclodextrin) containing compound (I) or comparative compound (III), was administered by IV bolus at 20 mg/kg, TID (8 hrs apart), over one day.” for “excipient.”

[3] = tested on: Escherichia coli (100 isolates); experiment: MIC90 by broth microdilution (EUCAST), 100 isolates of Escherichia coli; type: cell-based; conditions: test concentrations 0.03-64 μg/mL
Protocol: (§2) Minimum Inhibitory Concentration (MIC90) versus 100 isolates of Escherichia coli and Klebsiella pneumonia were determined. The Minimum Inhibitory Concentration at which 90% of the isolates (strains) are inhibited (MIC90) were measured by broth microdilution in line with EUCAST susceptibility testing standards (www.eucast.org). Bacterial inocula were prepared at ca 1×10^6 CFU/mL by diluting 100-fold a 0.5 McFarland suspension. Antibacterial panels containing 50 μl of antibacterial solutions at 2×the final concentrations were diluted 2-fold with 50 μl of inoculum to give a final inoculum of ca 5×10^5 CFU/ml and desired test concentrations of antibacterial agents (0.03-64 μg/mL). The plates were incubated according to the guidelines of the Clinical and Laboratory Standards Institute (Clinical and Laboratory Standards Institute. Methods for Dilution Antimicrobial Susceptibility Tests for Bacteria That Grow Aerobically; Approved Standard-Eleventh Edition, CLSI document […], 11 Jan. 2018). The MIC90 (μg/ml) is the MIC value at which greater than or equal to 90% of the isolates (strains) within a test population are inhibited.

[4] = tested on: Proteus spp. (10 isolates); experiment: MIC by broth microdilution versus Proteus spp. isolates; type: cell-based
Protocol: as §2, with “inhibited. Minimum Inhibitory Concentrations (MICs) versus Proteus spp. and Providencia spp. were determined for compound (I) and comparative compound (III) using the methodology outlined above for the 100 isolates of Escherichia coli and Klebsiella pneumonia.” for “inhibited.”

E. coli UT189 = experiment: Further proof-of-concept murine urinary tract infection model, intravenous infusion; type: in vivo; conditions: 96 h
Protocol: Compound (I) was evaluated in further proof-of-concept studies in murine models for the treatment of a respiratory infection with Gram-negative bacteria of the order Enterobacterales, and a urinary tract infection with Gram-negative bacteria of the order Enterobacterales. Each dot, triangle or square indicator represents a single mouse. LOD refers to the limit of detection of the bacteria. […] Each of the proof-of-concept studies was carried out separately. By vehicle is meant pharmaceutically acceptable excipient or carrier. For the further proof-of-concept study for the treatment of a urinary tract infection with Enterobacterales, female C3H/HeN mice were infected with E. coli UT189. Twenty-four hours after infection (‘pre-treatment’ in FIGS. 6a-c), mice were either treated with a vehicle control (20% hydroxypropyl β cyclodextrin) containing no compound (I), or a vehicle (20% hydroxypropyl β cyclodextrin) containing compound (I), administered by intravenous infusion for 1 hour (QD) with a dose of 20 mg/kg of compound (I). For some mice who received vehicle containing compound (I), an additional 1-hour continuous intravenous infusion was administered 5 hours after the time at which the first administration begun (BID, 5 hrs apart). The once or twice daily administration was continued for three days. For QD, administration took place between 24 to 25 hours, 48 to 49 hours, and 72 to 73 hours after infection, and for BID, administration took place between 24 to 25 hours, 29 to 30 hours, 48 to 49 hours, 53 to 54 hours, 72 to 73 hours and 77 to 78 hours after infection.

[5] = tested on: 44 ligands (including receptors, transporters, ion channels, enzymes and kinases); experiment: In vitro safety pharmacology binding assays (CEREP profile); conditions: 10 μM, 44 ligands tested, radioligand binding
Protocol: In vitro pharmacology binding assays were carried out for compound (I), comparative compound (II) and comparative compound (III) to evaluate the percentage of inhibition against 44 ligands (including receptors, transporters, ion channels, enzymes and kinases) at a concentration of 10 μM of compound (I), comparative compound (II) or comparative compound (III). Compound binding was calculated as a percentage of inhibition of the binding of a radioactively labelled ligand specific for each target. Results showing an inhibition higher than 50% are considered to represent discernible effects of compound (I), comparative compound (II) or comparative compound (III). […] The in vitro pharmacology binding assays for compound (I) and comparative compounds (II) and (III) was carried out separately over different days, and compared in FIGS. 1a, 1b, 1c, and 1d.

[6] = tested on: Providencia spp. (10 isolates); experiment: MIC by broth microdilution versus Providencia spp. isolates; type: cell-based
Protocol: as §2, with “inhibited. Minimum Inhibitory Concentrations (MICs) versus Proteus spp. and Providencia spp. were determined for compound (I) and comparative compound (III) using the methodology outlined above for the 100 isolates of Escherichia coli and Klebsiella pneumonia.” for “inhibited.”

[7] = tested on: Klebsiella pneumonia (100 isolates); experiment: MIC90 by broth microdilution (EUCAST), 100 isolates of Klebsiella pneumonia; type: cell-based; conditions: test concentrations 0.03-64 μg/mL
Protocol: as §2

E. coli UTI89 = experiment: Proof-of-concept murine urinary tract infection model, IV bolus; type: in vivo; conditions: IV bolus 20 mg/kg TID over 3 days, 96 h
Protocol: as §1, with “excipient. For the proof-of-concept study for the treatment of a urinary tract infection with Enterobacterales, female C3H/HeN mice were infected with E. coli UTI89. Twenty-four hours after infection (‘pre-treatment’ in FIGS. 4a-c), a vehicle (20% hydroxypropyl β cyclodextrin) containing no compound (I) or comparative compound (III), or a vehicle (20% hydroxypropyl β cyclodextrin) containing compound (I) or comparative compound (III), was administered by IV bolus of 20 mg/kg, TID (8 hrs apart), over 3 days.” for “excipient.”

[8] = both QD and BID daily administration

Structure (SMILES) | CFU value in the blood relative to stasis level ([1]; 9 h) | CFU value in the lung relative to stasis level [2] | MIC Range Escherichia coli (100 isolates) [3] [µg/mL] | MIC Range Proteus spp. (10 isolates) [4] [µg/mL] | bacterial burden in the kidney at end of study (E. coli UT189; BID administration) | bacterial burden in the bladder at end of study (E. coli UT189; [8]) | bacterial burden in the urine at end of study (E. coli UT189; [8]) | ligands with inhibition higher than 50% [5] | MIC Range Providencia spp. (10 isolates) [6] [µg/mL] | MIC Range Klebsiella pneumonia (100 isolates) [7] [µg/mL] | more efficacious than comparative compound (III) in reducing the CFU in the bladder (E. coli UTI89) [log] | more efficacious than comparative compound (III) in reducing the CFU in the urine (E. coli UTI89) [log] | bacterial burden in the urine at end of study (E. coli UTI89; female C3H/HeN mice) | bacterial burden in the blood at end of study ([1]; 9 h after initial infection)
Cc1cnccc1-c1[nH]c(N)nc1-c1ccc2c(c1)N(C(=O)CN)CCO2 [Comparative Compound (III), reference compound] | on or above the stasis level | relatively close to the stasis level | – | – | – | – | – | – | – | – | – | – | – | –
Cc1cnccc1-c1[nH]c(N)nc1-c1ccc2c(c1)N(C(=O)C(C)(C)N)CCO2 [Compound (I), 2-amino-1-(6-(2-amino-5-(3-methylpyridin-4-yl)-1H-imidazol-4-yl)-2,3-dihydro-4H-benzo[b][1,4]oxazin-4-yl)-2-methylpropan-1-one] | – | – | 0.12 to 4.00 | 8 to 32 | below the limit of detection (LOD) | below the limit of detection (LOD) | below the limit of detection (LOD) | only a single ligand | 0.5 to 16 | 0.25 to 8.00 | 3 | 3 | below the limit of detection (LOD) | below the limit of detection (LOD)
